Measured values from patent US6692937B2, “DNA encoding small and intermediate conductance calcium-activated potassium channels” (ICAgen, Incorporated, priority 1997, dated 2004).
Where two headings read alike, the source gives them in different places.

Legend:
Format in all cases: cell-based
hIK1 = target: T1, hIK1 (Homo sapiens, UniProt O15554); test: Macroscopic hIK1 currents in macropatches excised from Xenopus oocytes
T1 construct: expressed in transfected cells; host or cells: Xenopus oocytes injected with SP6-transcribed mRNA from vector pBF
Description: 3B. Example 3B describes the electrophysiology of the hIK1 channel. All hIK1 channel subunits were subcloned into the oocyte expression vector pBF (unpublished, graciously provided by Dr. B. Fakler) which provides 5′ and 3′ untranslated regions from the Xenopus β-globin gene flanking a polylinker containing multiple restriction sites. In vitro mRNAs were generated using SP6 polymerase (GibcoBRL); following synthesis, mRNAs were evaluated spectrophotometrically and by ethidium bromide staining after agarose gel electrophoresis.
As described above, Xenopus care and handling were in accordance with the highest standards of institutional guidelines. Frogs underwent no more than two surgeries, separated by at least three weeks, and All surgeries were performed using well established techniques. Frogs were anesthetized with an aerated solution of 3-aminobenzoic acid ethyl ester. Oocytes were studied 2-14 days after injection with 0.5-5 ng of mRNA.
Inside-out macropatches were excised into an intracellular solution containing 116 mM K-gluconate. 4 mM KCl, 10 mM HEPES (pH 7.2, adjusted with KOH) supplemented with CaCl2 to give free calcium concentration of 5 μM; the proportion of calcium binding to gluconate was determined by a computer program (CaBuf assuming a stability constant for Ca^2+ gluconate of 15.9M^−1 (Dawson et al., 1969). To obtain Ca^2+ concentrations below 1 μM, 1 mM EGTA was added to the bath solution and CaCl2 was added as calculated using the CaBuf program and published stability constants (Fabiato and Fabiato, 1979). Electrodes were pulled from thin-wailed, filamented borosilicate glass (World Precision Instruments) and filled with 116 mM K-gluconate, 4 mM KCl, 10 mM HEPES (pH 7.2). Electrode resistance was typically 2-5 MΩ. For outside-out macropatches, the solutions were reversed. Membrane patches were voltage clamped using an Axopatch 200A amplifier (Axon Instruments). The data were low-pass Bessel filtered at 1 kH and acquired using Pulse software (HEKA Electronik). Analysis was performed using Pulse, Kaleidagraph (Abelbeck), or IGOR (Wavemetrics) software. Unless otherwise stated all experiments were performed at room temperature from a holding potential of 0 mV. 2.5 second voltage ramps from −100 to either 60 or 100 mV were acquired at a sampling frequency of 500 Hz. Values were expressed as mean±SD. Statistical differences were determined using an unpaired t-test; p values <0.05 were considered significant.
(§1) To compare hIK1 and SK2, normalized current was plotted as a function of Ca^2+ concentration, and the data points fitted with the Hill equation.

rSK2 = target: T2, rSK2 (Rattus norvegicus, UniProt P70604); test: Macroscopic currents in inside-out macropatches excised from Xenopus oocytes expressing rSK2
T2 construct: expressed in transfected cells; host or cells: Xenopus oocytes injected with in vitro transcribed mRNA
T2 sequence (P70604 whole entry): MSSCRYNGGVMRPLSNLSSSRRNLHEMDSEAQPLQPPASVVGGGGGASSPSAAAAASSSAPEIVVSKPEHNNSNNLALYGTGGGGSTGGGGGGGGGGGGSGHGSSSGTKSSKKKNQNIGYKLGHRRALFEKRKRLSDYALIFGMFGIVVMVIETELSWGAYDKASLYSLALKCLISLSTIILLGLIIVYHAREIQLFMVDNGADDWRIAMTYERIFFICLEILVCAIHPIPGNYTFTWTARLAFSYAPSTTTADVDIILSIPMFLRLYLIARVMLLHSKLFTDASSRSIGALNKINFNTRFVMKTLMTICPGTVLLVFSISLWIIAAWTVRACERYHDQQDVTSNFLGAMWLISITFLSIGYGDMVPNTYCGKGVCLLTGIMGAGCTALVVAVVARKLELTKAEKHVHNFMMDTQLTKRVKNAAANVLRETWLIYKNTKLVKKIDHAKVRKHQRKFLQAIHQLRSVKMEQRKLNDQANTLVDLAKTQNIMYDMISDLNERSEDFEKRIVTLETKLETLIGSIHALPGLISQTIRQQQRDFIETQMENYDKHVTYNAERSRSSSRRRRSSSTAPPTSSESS
Text: (§2) Electrode resistance was typically 2-5 MΩ. Membrane patches were voltage clamped using an Axopatch 200A amplifier (Axon Instruments).
as §1

hSK1 = target: T3, hSK1 (Homo sapiens, UniProt Q92952); test: Macroscopic currents in inside-out macropatches excised from Xenopus oocytes expressing hSK1
T3 construct: expressed in transfected cells; host or cells: Xenopus oocytes injected with in vitro transcribed mRNA
T3 sequence (Q92952 other isoform, or with tags, fused parts or gaps): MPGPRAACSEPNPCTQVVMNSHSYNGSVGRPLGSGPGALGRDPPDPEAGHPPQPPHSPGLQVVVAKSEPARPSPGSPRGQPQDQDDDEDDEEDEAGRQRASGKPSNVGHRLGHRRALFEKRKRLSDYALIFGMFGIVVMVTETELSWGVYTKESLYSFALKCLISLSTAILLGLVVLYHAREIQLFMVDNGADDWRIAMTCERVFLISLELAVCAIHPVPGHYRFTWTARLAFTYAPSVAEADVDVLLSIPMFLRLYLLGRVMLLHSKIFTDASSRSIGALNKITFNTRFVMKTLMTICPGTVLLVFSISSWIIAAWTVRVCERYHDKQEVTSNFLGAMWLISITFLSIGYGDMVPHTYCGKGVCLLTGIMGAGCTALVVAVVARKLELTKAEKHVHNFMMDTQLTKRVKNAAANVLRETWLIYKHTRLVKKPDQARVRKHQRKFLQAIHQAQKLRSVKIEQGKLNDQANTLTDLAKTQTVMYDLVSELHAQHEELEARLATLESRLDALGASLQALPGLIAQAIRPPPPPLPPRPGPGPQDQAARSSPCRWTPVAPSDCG
Text: as §2

Compound: CC(C)C[C@@H]1NC(=O)[C@H](C)NC(=O)[C@H]([C@@H](C)O)NC(=O)[C@H](CCC(=O)O)NC(=O)[C@@H]2CCCN2C(=O)[C@H](C)NC(=O)[C@H](CCCCN)NC(=O)[C@@H]2CSSC[C@@H](C(=O)N[C@@H](CCC(N)=O)C(=O)N[C@@H](CCC(N)=O)C(=O)N[C@@H](Cc3cnc[nH]3)C(N)=O)NC(=O)[C@H](CCCNC(=N)N)NC(=O)[C@H](CCCNC(=N)N)NC(=O)[C@H](C)NC(=O)[C@H](CSSC[C@H](N)C(=O)N[C@@H](CC(N)=O)C(=O)N2)NC1=O [apamin]
- reduction of hIK1 currents (hIK1; 100 nM apamin): 12±5%

Compound: [Ca+2] [calcium]
- Hill coefficient of Ca2+-dependence, hIK1 (hIK1; n=7): 1.7±0.3
- EC50 (hIK1; normalized current versus Ca2+ concentration, n=7, read-out: K0.5 (concentration for half-maximal activation), hIK1): 320 ± 30 nM
- Hill coefficient of calcium dependence, rSK2 (rSK2; Hill fit, 8 patches): 4.81±1.46
- Hill coefficient of Ca2+-dependence, SK2 (rSK2; n=4): 3.5±0.4
- Kd (rSK2; slope conductance at reversal potential versus calcium, Hill fit, 8 patches, read-out: average Kd for calcium, rSK2): 630 ± 230 nM
- Hill coefficient of calcium dependence, hSK1 (hSK1; Hill fit): 3.90±0.45
- Kd (hSK1; Hill fit, read-out: Kd for calcium, hSK1): 700 ± 60 nM

Compound: COc1cc2c3cc1Oc1cc(ccc1O)C[C@@H]1c4c(cc(OC)c(O)c4Oc4ccc(cc4)C[C@@H]3N(C)CC2)CC[N+]1(C)C [dTC, d-tubocurare, reference compound]
- Kd (rSK2; 5 μM Ca2+, inside-out macropatches, dTC in patch pipette, read-out: Kd for block of rSK2 currents): 2400 nM
- fold less sensitive, hSK1 versus rSK2 (hSK1; ratio of Kd hSK1 to Kd rSK2): approximately 30 fold
- Kd (hSK1; read-out: Kd for block of hSK1): 76200 nM

Compound: CC(=O)N1CCN(c2ccc(OCC3COC(Cn4ccnc4)(c4ccc(Cl)cc4Cl)O3)cc2)CC1 (stereo not shown) [ketoconazole]
- block of hIK1 (hIK1; 10 μM ketoconazole): 24±6%

Compound: iberiotoxin (QFTDVDCSVSKECWSVCKDLFGVDRGKCMGKKCRCYQ) [IBX]
- block of hIK1 currents (hIK1; 50 nM IBX): 15±3%
